From patent publication US20250134869A1, “Pyrrolo[2,3-d]pyrimidinyl, Pyrrolo[2,3-b]pyrazinyl and Pyrrolo[2,3-d]pyridinyl Acryla-mides” (Pfizer Inc, priority 2021, published 2025)
pIC50: −log10 of the molar value. Read-outs that look alike come from different tables or passages of the source.

Biological target: JAK3 enzyme (Homo sapiens (Human), UniProt P52333)
Experiment: JAK Caliper Enzyme Assay at 4 μM or 1 mM ATP
Assay type: biochemical
Procedure: JAK Caliper Enzyme Assay at […] or 1 mM ATP
Test article was solubilized in dimethyl sulfoxide (DMSO) to a stock concentration of 30 mM. An 11-point half log dilution series was created in DMSO with a top concentration of 600 μM. […] The compound plates were diluted 1 to 60 resulting in a top final assay compound concentration of 10 μM and a 2% DMSO concentration.
Test article and assay controls were added to a 384-well plate. Reaction mixtures contained 20 mM HEPES, pH 7.4, 10 mM magnesium chloride, 0.01% bovine serum albumin (BSA), 0.0005% Tween […] or 1 mM ATP and […] peptide substrate. […] The assays were initiated by the addition 1 nM JAK3 enzyme and were incubated at room temperature 75 minutes for JAK3. Enzyme concentrations and incubation times were optimized for each new enzyme preps and were modified slightly over time to ensure 20%-30% phosphorylation. The assays were stopped with a final concentration of 10 mM EDTA, 0.1% Coating Reagent and 100 mM HEPES, pH=7.4. The assay plates were placed on a Caliper Life Science Lab Chip 3000 (LC3000) instrument, and each well was sampled using appropriate separation conditions to measure the unphosphorylated and phosphorylated peptide.

[1] = read-out: JAK3 (4 μM ATP) IC50, 4 μM ATP
[2] = read-out: JAK3 (1 mM ATP) IC50, 1 mM ATP

Chain of JAK3 enzyme (P52333 whole entry, species assumed): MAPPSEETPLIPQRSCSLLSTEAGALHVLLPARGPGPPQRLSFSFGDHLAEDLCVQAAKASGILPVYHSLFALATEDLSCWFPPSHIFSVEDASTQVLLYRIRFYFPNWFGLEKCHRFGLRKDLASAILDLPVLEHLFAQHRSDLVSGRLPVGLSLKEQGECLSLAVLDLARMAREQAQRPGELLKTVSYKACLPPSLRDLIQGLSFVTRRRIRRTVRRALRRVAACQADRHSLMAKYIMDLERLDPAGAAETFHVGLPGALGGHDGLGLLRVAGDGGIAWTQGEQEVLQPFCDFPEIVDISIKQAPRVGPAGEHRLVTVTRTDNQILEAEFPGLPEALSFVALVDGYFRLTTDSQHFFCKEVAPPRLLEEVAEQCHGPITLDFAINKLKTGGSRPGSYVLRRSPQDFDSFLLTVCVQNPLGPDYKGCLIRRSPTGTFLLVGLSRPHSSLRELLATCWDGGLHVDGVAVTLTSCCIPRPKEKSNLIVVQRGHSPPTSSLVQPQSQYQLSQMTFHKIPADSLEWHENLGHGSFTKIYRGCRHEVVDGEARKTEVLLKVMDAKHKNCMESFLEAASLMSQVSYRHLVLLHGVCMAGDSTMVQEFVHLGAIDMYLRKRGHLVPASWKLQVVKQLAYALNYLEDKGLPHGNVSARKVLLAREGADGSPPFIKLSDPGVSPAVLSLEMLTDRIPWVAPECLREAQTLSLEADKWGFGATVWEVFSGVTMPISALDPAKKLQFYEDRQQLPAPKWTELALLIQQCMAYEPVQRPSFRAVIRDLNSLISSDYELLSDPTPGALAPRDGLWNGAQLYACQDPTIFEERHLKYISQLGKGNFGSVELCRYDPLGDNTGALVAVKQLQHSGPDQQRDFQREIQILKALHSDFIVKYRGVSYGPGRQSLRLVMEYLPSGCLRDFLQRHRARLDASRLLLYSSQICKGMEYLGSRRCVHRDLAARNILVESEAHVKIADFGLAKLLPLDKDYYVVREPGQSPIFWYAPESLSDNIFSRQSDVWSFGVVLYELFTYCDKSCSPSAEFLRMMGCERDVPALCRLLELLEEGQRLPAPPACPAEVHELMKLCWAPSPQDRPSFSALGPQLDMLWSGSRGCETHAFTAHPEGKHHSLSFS

SMILES	pIC50 [1]	pIC50 [2]
C=CC(=O)N1CCC(Oc2cnc3[nH]cc(-c4ccc(C#N)nc4)c3n2)CC1 [Example 216, 5-{2-[(1-acryloylpiperidin-4-yl)oxy]-5H-pyrrolo[2,3-b]pyrazin-7-yl}pyridine-2-carbonitrile]	7.90	5.99
C=CC(=O)N1CCN(c2cnc3[nH]cc(C(=O)NC(C)C)c3n2)C[C@H]1C(C)C [Example 294, 2-[(3R)-4-acryloyl-3-(propan-2-yl)piperazin-1-yl]-N-(propan-2-yl)-5H-pyrrolo[2,3-b]pyrazine-7-carboxamide]	8.72	6.63
C=CC(=O)N1CCC(Nc2cnc3[nH]cc(C(=O)N[C@@H]4CCC[C@H]4F)c3n2)CC1 [Example 237, 2-[(1-acryloylpiperidin-4-yl)amino]-N-[(1R,2R)-2-fluorocyclopentyl]-5H-pyrrolo[2,3-b]pyrazine-7-carboxamide]	9.70	8.11
C=CC(=O)N1CCC(Nc2cnc3[nH]cc(C(=O)NCCC#N)c3n2)CC1 [Example 261, 2-[(1-acryloylpiperidin-4-yl)amino]-N-(2-cyanoethyl)-5H-pyrrolo[2,3-b]pyrazine-7-carboxamide]	9.70	8.13
C=CC(=O)N1CCC(Nc2cnc3[nH]cc(C(=O)NC4CC(F)(F)C4)c3n2)CC1 [Example 245, 2-[(1-acryloylpiperidin-4-yl)amino]-N-(3,3-difluorocyclobutyl)-5H-pyrrolo[2,3-b]pyrazine-7-carboxamide]	9.70	7.75
C=CC(=O)N1CCC(Nc2cnc3[nH]cc(C(=O)NC4CCCCC4(F)F)c3n2)CC1 (stereo not drawn) [Example 256, 2-[(1-acryloylpiperidin-4-yl)amino]-N-(2,2-difluorocyclohexyl)-5H-pyrrolo[2,3-b]pyrazine-7-carboxamide]	9.70	8.10
C=CC(=O)N1CCC[C@@H](Nc2ncnc3[nH]cc(CC)c23)C1 [Example 44, 1-{(3R)-3-[(5-ethyl-7H-pyrrolo[2,3-d]pyrimidin-4-yl)amino]piperidin-1-yl}prop-2-en-1-one]	9.52	6.78
C=CC(=O)N1C[C@H](Nc2ncnc3[nH]ccc23)CC[C@@H]1CC (single isomer, unassigned) [Example 9]	9.40	7.27
C=CC(=O)N1C[C@H](Nc2ncnc3[nH]cc(Cl)c23)CC[C@@H]1C [Example 18, 1-((2S,5R)-5-((5-Chloro-7H-pyrrolo[2,3-d]pyrimidin-4-yl)amino)-2-methylpiperidin-1-yl)prop-2-en-1-one]	9.70	7.79
C=CC(=O)N1C[C@@H](O)C[C@@H](Nc2ncnc3[nH]ccc23)C1 [Example 17, 1-((3R,5S)-3-(7H-Pyrrolo[2,3-d]pyrimidin-4-ylamino)-5-hydroxypiperidin-1-yl)prop-2-en-1-one]	8.77	7.04
C=CC(=O)N1CCC(Nc2cnc3[nH]cc(C(=O)N[C@H](C(C)C)[C@@H](O)C(F)(F)F)c3n2)CC1 [Example 248, 2-[(1-acryloylpiperidin-4-yl)amino]-N-[(2R,3R)-1,1,1-trifluoro-2-hydroxy-4-methylpentan-3-yl]-5H-pyrrolo[2,3-b]pyrazine-7-carboxamide]	9.40	7.40
C=CC(=O)N1CC[C@@H](Nc2cnc3[nH]cc(C(=O)NC(C)C)c3n2)[C@H](F)C1 [Example 291, 2-{[(3R,4R)-1-acryloyl-3-fluoropiperidin-4-yl]amino}-N-(propan-2-yl)-5H-pyrrolo[2,3-b]pyrazine-7-carboxamide]	9.70	8.04
C=CC(=O)N1CC[C@H](Nc2cnc3[nH]cc(C(=O)NC(C)C)c3n2)[C@H](OC)C1 [Example 317, 2-{[(3R,4S)-1-acryloyl-3-methoxypiperidin-4-yl]amino}-N-(propan-2-yl)-5H-pyrrolo[2,3-b]pyrazine-7-carboxamide]	9.30	7.35
C=CC(=O)N1CCC(Oc2cnc3[nH]cc(-c4ccc(S(C)(=O)=O)cc4)c3n2)CC1 [Example 229, 1-[4-({7-[4-(methylsulfonyl)phenyl]-5H-pyrrolo[2,3-b]pyrazin-2-yl}oxy)piperidin-1-yl]prop-2-en-1-one]	8.15	6.13
C=CC(=O)N1C[C@@H](Nc2ncnc3[nH]ccc23)[C@@H]2CC[C@H]1C2 [Example 126, 1-((1S,4S,5R)-4-(7H-pyrrolo[2,3-d]pyrimidin-4-ylamino)-2-azabicyclo[3.2.1]octan-2-yl)prop-2-en-1-one]	6.22	< 5.00
C=CC(=O)N1CCC(Nc2cnc3[nH]cc(C(=O)NCC4CCCC4)c3n2)CC1 [Example 270, 2-[(1-acryloylpiperidin-4-yl)amino]-N-(cyclopentylmethyl)-5H-pyrrolo[2,3-b]pyrazine-7-carboxamide]	> 10.00	8.07

SMILES	pIC50 [1]	pIC50 [2]
C=CC(=O)N1CCC(Nc2cnc3[nH]cc(C(=O)NC4CCCC4)c3n2)CC1 [Example 283, 2-[(1-acryloylpiperidin-4-yl)amino]-N-cyclopentyl-5H-pyrrolo[2,3-b]pyrazine-7-carboxamide]	9.52	8.12
C=CC(=O)N1C[C@H](Nc2ncnc3[nH]ccc23)C[C@H](N(C)C)C1 [Example 57, 1-((3R,5S)-3-((7H-Pyrrolo[2,3-d]pyrimidin-4-yl)amino)-5-(dimethylamino)piperidin-1-yl)prop-2-en-1-one]	8.85	6.44
C=CC(=O)N1CCN(c2cnc3[nH]cc(C(=O)NC(C)C)c3n2)C[C@@H]1CC [Example 299, 2-[(3S)-4-acryloyl-3-ethylpiperazin-1-yl]-N-(propan-2-yl)-5H-pyrrolo[2,3-b]pyrazine-7-carboxamide]	9.15	7.25
C/C=C/C(=O)N1CCC[C@@H](Nc2ncnc3[nH]cc(CC(C)(C)O)c23)C1 [Example 159, (2E)-1-[(3R)-3-{[5-(2-Hydroxy-2-methylpropyl)-7H-pyrrolo[2,3-d]pyrimidin-4-yl]amino}piperidin-1-yl]but-2-en-1-one]	< 5.00	
C=CC(=O)N1CCN(c2cnc3[nH]cc(C(=O)NC(C)C)c3n2)C(C)(C)C1 [Example 312, 2-(4-acryloyl-2,2-dimethylpiperazin-1-yl)-N-(propan-2-yl)-5H-pyrrolo[2,3-b]pyrazine-7-carboxamide]	8.35	6.23
C=CC(=O)N1CCC(Nc2cnc3[nH]ccc3n2)CC1 [Example 176, 1-[4-(5H-pyrrolo[2,3-b]pyrazin-2-ylamino)piperidin-1-yl]prop-2-en-1-one]	8.14	6.04
CC/C=C(\C#N)C(=O)N1CCC[C@@H](Nc2ncnc3[nH]ccc23)C1 [Example 99, (2E)-2-{[(3R)-3-(7H-pyrrolo[2,3-d]pyrimidin-4-ylamino)piperidin-1-yl]carbonyl}pent-2-enenitrile]	6.59	< 5.00
C=CC(=O)N1CCC(Nc2cnc3[nH]cc(C(=O)N[C@@H](C)CCC)c3n2)CC1 [Example 267, 2-[(1-acryloylpiperidin-4-yl)amino]-N-[(2S)-pentan-2-yl]-5H-pyrrolo[2,3-b]pyrazine-7-carboxamide]	9.52	8.05
C=CC(=O)N1CC[C@H](Nc2cnc3[nH]cc(C(=O)NC(C)C)c3n2)C1 [Example 171, 2-{[(3S)-1-acryloylpyrrolidin-3-yl]amino}-N-(propan-2-yl)-5H-pyrrolo[2,3-b]pyrazine-7-carboxamide]	9.40	7.49
C=CC(=O)N1CCC[C@@H](Nc2ncnc3[nH]cc(C(=O)NCC)c23)C1 [Example 144, 4-{[(3R)-1-acryloylpiperidin-3-yl]amino}-N-ethyl-7H-pyrrolo[2,3-d]pyrimidine-5-carboxamide]	6.86	
C=CC(=O)N1CCC[C@@H](Nc2ncnc3[nH]cc(-c4ccccc4O)c23)C1 [Example 25, 1-[(3R)-3-{[5-(2-hydroxyphenyl)-7H-pyrrolo[2,3-d]pyrimidin-4-yl]amino}piperidin-1-yl]prop-2-en-1-one]	8.54	6.83
C=C(F)C(=O)N1CCC[C@@H](Nc2ncnc3[nH]ccc23)C1 [Example 91, 2-fluoro-1-[(3R)-3-(7H-pyrrolo[2,3-d]pyrimidin-4-ylamino)piperidin-1-yl]prop-2-en-1-one]	7.25	5.33
C=CC(=O)N1CC[C@@H]2CN(c3cnc4[nH]cc(C(=O)NC(C)C)c4n3)C[C@@H]21 [Example 170, 2-[(3aR,6aR)-1-acryloylhexahydropyrrolo[3,4-b]pyrrol-5(1H)-yl]-N-(propan-2-yl)-5H-pyrrolo[2,3-b]pyrazine-7-carboxamide]	8.48	6.41
COCCc1c[nH]c2ncnc(N[C@@H]3CCCN(C(=O)/C=C/CN(C)C)C3)c12 [Example 108, (2E)-4-(dimethylamino)-1-[(3R)-3-{[5-(2-methoxyethyl)-7H-pyrrolo[2,3-d]pyrimidin-4-yl]amino}pipendin-1-yl]but-2-en-1-one]	6.28	< 5.00
C=CC(=O)N1C[C@H](Nc2ncnc3[nH]ccc23)C[C@H](OC)C1 [Example 19, 1-((3R,5S)-3-((7H-Pyrrolo[2,3-d]pyrimidin-4-yl)amino)-5-methoxypiperidin-1-yl)prop-2-en-1-one]	9.22	7.17
